Each molecule was assayed against PD-1/PD-L1 (Homo sapiens (Human), UniProt Q9NZQ7) (assay: PD-1/PD-L1 Homogeneous Time-Resolved Fluorescence (HTRF) Binding Assay). Details: recombinant human PD-1 (3 nM) and PD-L1 (10 nM), 25° C., PBS pH 7.4.
Procedure: Example A. PD-1/PD-L1 Homogeneous Time-Resolved Fluorescence (HTRF) Binding Assay
The assays were conducted in a standard black 384-well polystyrene plate with a final volume of 20 μL. Inhibitors were first serially diluted in DMSO and then added to the plate wells before the addition of other reaction components. The final concentration of DMSO in the assay was 1%. The assays were carried out at 25° C. in the PBS buffer (pH 7.4) with 0.05% Tween-20 and 0.1% BSA. Recombinant human PD-L1 protein (19-238) with a His-tag at the C-terminus was purchased from AcroBiosystems (PD1-H5229). Recombinant human PD-1 protein (25-167) with Fc tag at the C-terminus was also purchased from AcroBiosystems (PD1-H5257). PD-L1 and PD-1 proteins were diluted in the assay buffer and 10 μL was added to the plate well. Plates were centrifuged and proteins were preincubated with inhibitors for 40 minutes. The incubation was followed by the addition of 10 μL of HTRF detection buffer supplemented with Europium cryptate-labeled anti-human IgG (PerkinElmer-AD0212) specific for Fc and anti-His antibody conjugated to SureLight®-Allophycocyanin (APC, PerkinElmer-AD0059H). After centrifugation, the plate was incubated at 25° C. for 60 min. before reading on a PHERAstar FS plate reader (665 nm/620 nm ratio). Final concentrations in the assay were—3 nM PD1, 10 nM PD-L1, 1 nM europium anti-human IgG and 20 nM anti-His-Allophycocyanin. IC50 determination was performed by fitting the curve of percent control activity versus the log of the inhibitor concentration using the GraphPad Prism 5.0 software.

Sequence of PD-1/PD-L1 (Q9NZQ7 19-238): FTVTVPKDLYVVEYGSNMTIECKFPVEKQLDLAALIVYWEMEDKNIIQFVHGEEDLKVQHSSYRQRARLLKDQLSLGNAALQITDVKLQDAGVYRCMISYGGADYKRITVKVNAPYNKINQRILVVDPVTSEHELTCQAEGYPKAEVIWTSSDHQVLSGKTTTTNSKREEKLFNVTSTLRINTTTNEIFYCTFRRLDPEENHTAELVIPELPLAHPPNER

| IC50 [µM] | Structure (SMILES) |
| --- | --- |
| ≤ 0.01 | Cc1c(-c2nc3cc(CN4CC[C@@H](C(=O)O)C4)cc(C#N)c3o2)cccc1-c1cccc(-n2cc3c(n2)CN(C)CC3)c1Cl [Example 57, (R)-1-((2-(2′-chloro-2-methyl-3′-(6-methyl-4,5,6,7-tetrahydro-2H-pyrazolo[3,4-c]pyridin-2-yl)biphenyl-3-yl)-7-cyanobenzo[d]oxazol-5-yl)methyl)pyrrolidine-3-carboxylic acid] |
| ≤ 0.01 | Cc1c(Nc2nccc3cc(CN4CC[C@@H](O)C4)cnc23)cccc1-c1cccc(-c2nc3cc(CN4CC[C@@H](CC(=O)O)C4)cc(C#N)c3o2)c1C [Example 174, 2-((S)-1-((7-cyano-2-(3′-(3-(((R)-3-hydroxypyrrolidin-1-yl)methyl)-1,7-naphthyridin-8-ylamino)-2,2′-dimethylbiphenyl-3-yl)benzo[d]oxazol-5-yl)methyl)pyrrolidin-3-yl)acetic acid] |
| ≤ 0.01 | Cc1c(-c2nc3cc(CN4CC[C@@H](O)C4)cc(C#N)c3o2)cccc1-c1cccc(NC(=O)c2nc3c(n2C)CCN(CC24CC(C(=O)O)(C2)C4)C3)c1Cl [Example 262, (R)-3-((2-(2-chloro-3′-(7-cyano-5-((3-hydroxypyrrolidin-1-yl)methyl)benzo[d]oxazol-2-yl)-2′-methylbiphenyl-3-yl-carbamoyl)-1-methyl-6,7-dihydro-1H-imidazo[4,5-c]pyridin-5(4H)-yl)methyl)bicyclo[1.1.1]-pentane-1-carboxylic acid] |
| ≤ 0.01 | CCN(C)CC(=O)N1Cc2nc(-c3cccc(-c4cccc(-c5nc6cc(CN7CC[C@@H](C(=O)O)C7)cc(C#N)c6o5)c4C)c3C)oc2C1 [Example 241, (R)-1-((7-cyano-2-(3′-(5-(N-ethyl-N-methylglycyl)-5,6-dihydro-4H-pyrrolo[3,4-d]oxazol-2-yl)-2,2′-dimethyl-[1,1′-biphenyl]-3-yl)benzo[d]oxazol-5-yl)methyl)pyrrolidine-3-carboxylic acid] |
| ≤ 0.01 | Cc1c(-c2nc3cc(CN4CC[C@@H](C(=O)O)C4)cc(C#N)c3o2)cccc1-c1cccc(-c2nc3c(s2)CN(C(=O)CN2CC[C@](C)(O)C2)C3)c1C [Example 115, (R)-1-((7-cyano-2-(3′-(5-(2-((S)-3-hydroxy-3-methylpyrrolidin-1-yl)acetyl)-5,6-dihydro-4H-pyrrolo[3,4-d]thiazol-2-yl)-2,2′-dimethylbiphenyl-3-yl)benzo[d]oxazol-5-yl)methyl)pyrrolidine-3-carboxylic acid] |
| ≤ 0.01 | Cc1c(-c2nc3c(o2)CN(C(=O)CN2CCCC[C@H]2C(=O)O)C3)cccc1-c1cccc(-c2nc3cc(CN4CC[C@@H](O)C4)cc(C#N)c3o2)c1C [Example 133, (S)-1-(2-(2-(3′-(7-cyano-5-(((R)-3-hydroxypyrrolidin-1-yl)methyl)benzo[d]oxazol-2-yl)-2,2′-dimethyl-[1,1′-biphenyl]-3-yl)-4,6-dihydro-5H-pyrrolo[3,4-d]oxazol-5-yl)-2-oxoethyl)piperidine-2-carboxylic acid] |
| ≤ 0.01 | Cc1c(Nc2nccc3cc(CN4CC[C@@](C)(C(=O)O)C4)cnc23)cccc1-c1cccc(-c2nc3cc(CN4CC[C@@H](O)C4)cc(C#N)c3o2)c1C [Example 216, (R)-1-((8-(3′-(7-cyano-5-(((R)-3-hydroxypyrrolidin-1-yl)methyl)benzo [d]oxazol-2-yl)-2,2′-dimethylbiphenyl-3-ylamino)-1,7-naphthyridin-3-yl)methyl)-3-methylpyrrolidine-3-carboxylic acid] |
| ≤ 0.01 | Cc1c(Nc2nccc(CN3CC[C@@H](O)C3)c2F)cccc1-c1cccc(-c2nc3cc(CN4CC[C@@H](C(=O)O)C4)cc(C#N)c3o2)c1C [Example 102, (R)-1-((7-cyano-2-(3′-(3-fluoro-4-(((R)-3-hydroxypyrrolidin-1-yl)methyl)pyridin-2-ylamino)-2,2′-dimethylbiphenyl-3-yl)benzo[d]oxazol-5-yl)methyl)pyrrolidine-3-carboxylic acid] |
| ≤ 0.01 | Cc1c(-c2nc3cc(CN4CC[C@@H](C(=O)O)C4)cc(C#N)c3o2)cccc1-c1cccc(NC(=O)c2nc3c(n2C)CC(C)N(C)C3)c1Cl (stereo partly drawn) [Example 160, (3R)-1-((2-(2′-chloro-2-methyl-3′-(1,5,6-trimethyl-4,5,6,7-tetrahydro-1H-imidazo[4,5-c]pyridine-2-carboxamido)biphenyl-3-yl)-7-cyanobenzo[d]oxazol-5-yl)methyl)pyrrolidine-3-carboxylic acid] |
| ≤ 0.01 | Cc1c(Nc2nccc3cc(CN4CC[C@@H](C(=O)O)C4)cnc23)cccc1-c1cccc(-c2nc3cc(CN4CC[C@@H](O)C4)cc(C#N)c3o2)c1C [Example 141, (R)-1-((8-(3′-(7-cyano-5-(((R)-3-hydroxypyrrolidin-1-yl)methyl)benzo[d]oxazol-2-yl)-2,2′-dimethylbiphenyl-3-ylamino)-1,7-naphthyridin-3-yl)methyl)pyrrolidine-3-carboxylic acid] |
| ≤ 0.01 | Cc1c(Nc2nccc3cc(CN4CC[C@@H](O)C4)cnc23)cccc1-c1cccc(-c2nc3cc(CN[C@H]4CC[C@H](CC(=O)O)CC4)cc(C#N)c3o2)c1C [Example 184, 2-(trans-4-((7-cyano-2-(3′-(3-(((R)-3-hydroxypyrrolidin-1-yl)methyl)-1,7-naphthyridin-8-ylamino)-2,2′-dimethylbiphenyl-3-yl)benzo[d]oxazol-5-yl)methylamino)cyclohexyl)acetic acid] |
| ≤ 0.01 | Cc1c(-c2nc3c(o2)CN(C(=O)CN(C)C(C)C)C3)cccc1-c1cccc(-c2nc3cc(CN4CC[C@@](C)(C(=O)O)C4)cc(C#N)c3o2)c1C [Example 248, (R)-1-((7-cyano-2-(3′-(5-(N-isopropyl-N-methylglycyl)-5,6-dihydro-4H-pyrrolo[3,4-d]oxazol-2-yl)-2,2'-dimethyl-[1,1′-biphenyl]-3-yl)benzo[d]oxazol-5-yl)methyl)-3-methylpyrrolidine-3-carboxylic acid] |
| ≤ 0.01 | Cc1c(Nc2nccc3cc(CN4CC[C@@H](O)C4)cnc23)cccc1-c1cccc(-c2nc3cc(CN4CC[C@H](C(=O)O)C4)cc(Cl)c3o2)c1C [Example 19, (S)-1-((7-chloro-2-(3′-(3-(((R)-3-hydroxypyrrolidin-1-yl)methyl)-1,7-naphthyridin-8-ylamino)-2,2′-dimethylbiphenyl-3-yl)benzo[d]oxazol-5-yl)methyl)pyrrolidine-3-carboxylic acid] |
| ≤ 0.01 | Cc1c(-c2nc3c(o2)CN(C(=O)CN2CCN(C)CC2)C3)cccc1-c1cccc(-c2nc3cc(CN4CC[C@@](C)(C(=O)O)C4)cc(C#N)c3o2)c1C [Example 254, (R)-1-((7-cyano-2-(2,2′-dimethyl-3′-(5-(2-(4-methylpiperazin-1-yl)acetyl)-5,6-dihydro-4H-pyrrolo[3,4-d]oxazol-2-yl)-[1,1′-biphenyl]-3-yl)benzo[d]oxazol-5-yl)methyl)-3-methylpyrrolidine-3-carboxylic acid] |
| ≤ 0.01 | Cc1c(-c2nc3c(o2)CN(C(=O)CN2CC4CC2CN4C)C3)cccc1-c1cccc(-c2nc3cc(CN4CC[C@@H](C(=O)O)C4)cc(C#N)c3o2)c1C (stereo partly drawn) [Example 255, (3R)-1-((7-cyano-2-(2,2′-dimethyl-3′-(5-(2-(5-methyl-2,5-diazabicyclo[2.2.1]heptan-2-yl)acetyl)-5,6-dihydro-4H-pyrrolo[3,4-d]oxazol-2-yl)biphenyl-3-yl)benzo[d]oxazol-5-yl)methyl)pyrrolidine-3-carboxylic acid] |
| ≤ 0.01 | Cc1c(-c2nc3cc(CN4CC[C@@H](O)C4)cc(C#N)c3o2)cccc1-c1cccc(NC(=O)c2nc3c(n2C)CCN(CCC2CCC(C(=O)O)CC2)C3)c1Cl (stereo partly drawn) [Example 265, (R)-4-(2-(2-(2-chloro-3′-(7-cyano-5-((3-hydroxypyrrolidin-1-yl)methyl)benzo[d]oxazol-2-yl)-2′-methylbiphenyl-3-ylcarbamoyl)-1-methyl-6,7-dihydro-1H-imidazo[4,5-c]pyridin-5(4H)-yl)ethyl)cyclohexane carboxylic acid] |
| ≤ 0.01 | Cc1c(-c2nc3cc(CN4CC[C@H](C(=O)O)C4)cc(Cl)c3o2)cccc1-c1cccc(Nc2nccc3cc(CN4CC[C@H](O)C4)cnc23)c1Cl [Example 32, (S)-1-((7-chloro-2-(2′-chloro-3′-(3-(((S)-3-hydroxypyrrolidin-1-yl)methyl)-1,7-naphthyridin-8-ylamino)-2-methylbiphenyl-3-yl)benzo[d]oxazol-5-yl)methyl)pyrrolidine-3-carboxylic acid] |
| ≤ 0.01 | Cc1c(-c2nc3cc(CN4CC[C@@H](C(=O)O)C4)cc(C#N)c3o2)cccc1-c1cccc(-c2nc3c(s2)CN(C(=O)CCN(C)C)C3)c1C [Example 106, (R)-1-((7-cyano-2-(3′-(5-(3-(dimethylamino)propanoyl)-5,6-dihydro-4H-pyrrolo[3,4-d]thiazol-2-yl)-2,2′-dimethylbiphenyl-3-yl)benzo[d]oxazol-5-yl)methyl)pyrrolidine-3-carboxylic acid] |
| ≤ 0.01 | Cc1c(Nc2nccc3nccnc23)cccc1-c1cccc(-c2nc3cc(CN4CC[C@@H](C(=O)O)C4)cc(Cl)c3o2)c1C [Example 11, (R)-1-((7-chloro-2-(2,2′-dimethyl-3′-(pyrido[4,3-b]pyrazin-5-ylamino)biphenyl-3-yl)benzo[d]oxazol-5-yl)methyl)pyrrolidine-3-carboxylic acid] |

Reference: patent publication US10308644B2, “Heterocyclic compounds as immunomodulators” (Incyte Corporation, priority 2016, dated 2019)
